Measured values published in patent publication US20210038730A1, “PEPTIDE NANOFIBERS” (UNIVERSITY OF PORTSMOUTH HIGHER EDUCATION CORPORATION, priority 2018, published 2021).
Values joined by “and” are separate entries in the source; they are usually repeats but may differ in a detail not shown here. Identical values can stand only once. Like-named read-outs stand apart in the source and are kept apart here.

Tests used:
[1] = Enzymatic stability in rat brain homogenates; settings: 50% (v/v) rat brain homogenates
[2] = Release from 3D printed cellulose-sodium alginate bioinks; format: physicochemical; settings: PBS
Procedure: Peptide nanofibers were embedded in cellulose nanocrystals and sodium alginate hydrogels. Cellulose nanocrystals were synthesised by sulphuric acid degradation (45% w/v, 150 mls) of cellulose (15 g, Western Hemlock) at 50° C. over 90 minutes under stirring. Cold-deionised water was used to quench reaction and acid was removed by centrifugation (4,000 rpm, 10 minutes). Cellulose nanocrystals were dialysed (12-14 kDa for cytochrome C, Medicell Ltd) over 5 L with 6 changes over 24 hours. Resulting suspension was probe sonicated (400 watt, 23% amplitude, 10 minutes) in 50 mLs aliquots. The resulting suspension was centrifuged (4,000 rpm, 10 minutes) and supernatant was stored in the refrigerator. Cellulose nanocrystals (CNCs, 4.5% w/w, 2 g) were loaded onto a syringe attached to a three-way valve, where a syringe loaded sodium alginate (6% w/w in 4.6% glucose, 1.7 g). The CNCs were injected in the sodium alginate syringe and mixed 10 times (in each direction). Sample was collected in one syringe and a new syringe containing calcium chloride (0.1M, 0.9 mL). Sample was pushed into calcium chloride and mixed 5 times (in each direction) prior collecting the gel in one syringe and loading in cartridges. Peptide nanofibers (5 mg) were dispersed in 0.9 mL of 0.1M calcium chloride and mixed as above when needed. Release of paclitaxel loaded and TPGnRH gels in PBS (1×, 7.4, 6 mLs) was quantified as per HPLC method described previously (Example 7, Table 2). After an initial burst release, a controlled release profile is observed with gradual slow release over days. Resulting inks can be utilised for the production of nanofiber loaded implants for tumour patients.

in vivo = settings: male, BALB/c, mouse, iv, 35 mg/kg
Procedure: At 5 and 60 minutes, mice were killed and the blood and brain were harvested. Blood samples (0.5-0.7 mL per mouse) were collected into evacuated, sterile, spray coated with tripotassium ethylenediamine tetraacetic acid (3.6 mg), medical grade PET tubes. […] Brain was weighted and homogenised with ice-cold PBS (1×, 7.4) using a 3 mL glass homogeniser. Plasma (100 μL) and brain homogenate (˜800 μL) were extracted with equal volumes of ice-cold acetonitrile three times and samples were dried using a centrifugal concentrator (SPD1010 SpeedVac System, ThermoSavant, Renfrewshire, United Kingdom) under vacuum over 2 hours and 4 hours respectively. Samples were orbitally agitated using a SciQuip Microplate Shaker attached to a tube adapter for 1.5-2 mL tubes (10 mm) for 10 minutes prior being centrifuged at 8,000 rpm for 5 minutes. Supernatants were pipetted in 0.2 mL amber vials and was quantified by reverse phase-HPLC. Analysis was conducted on Onyx Monolithic C18 column (4.6 mm×10+100 mm, 5 μm pore size) with a gradient method (Table 13) using an Agilent 1200 Series HPLC system (Agilent Technologies, Cheadle, UK). […] Injection volume was 40 μL, and the detection was performed at 220 nm and 280 nm.

[3] = molecular target: T1, GnRH-R expressed on glioblastoma cells (Homo sapiens, UniProt P30968); experiment: Receptor binding by single molecule force spectroscopy; settings: for koff: read-out: Dissociation Rate (Koff)
T1 construct: GnRH peptides to the GnRH-R expressed on glioblastoma cells; endogenous in cells; host or cells: U-87 MG, UP-007, UP-029, SEBTA-023 glioblastoma cells (living)
T1 sequence (P30968 1-328): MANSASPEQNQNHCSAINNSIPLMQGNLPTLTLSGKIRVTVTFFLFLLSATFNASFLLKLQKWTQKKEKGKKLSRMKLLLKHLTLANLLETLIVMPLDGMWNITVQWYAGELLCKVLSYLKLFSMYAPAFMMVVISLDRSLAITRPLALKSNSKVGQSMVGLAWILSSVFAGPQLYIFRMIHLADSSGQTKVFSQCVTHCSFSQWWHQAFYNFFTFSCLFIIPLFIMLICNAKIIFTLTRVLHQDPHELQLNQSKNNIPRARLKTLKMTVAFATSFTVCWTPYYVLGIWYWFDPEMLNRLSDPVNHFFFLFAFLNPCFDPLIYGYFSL
Procedure: The binding of the GnRH analogues to GnRH-R was assessed using single molecule force spectroscopy (SMFS) and Topography and Recognition (TREC) imaging based on AFM. AFM tips were functionalised with Glu-GnRH, goserelin acetate and […] as a monomer and nanofibers using a previously described method ^9, 10. Silicon nitride (6-20 pN/nm spring constant, Bruker, Mass., USA) and magnetically coated […] tips (Keysight, Calif., USA) were used for SMFS and TREC studies, respectively. […] Subsequently, acetal groups were converted into aldehyde groups by immersing the tips in a 1% (w/v) citric acid solution for 10 minutes. […] Following an incubation of 2 hours, the free aldehyde groups were inactivated by ethanolamine for 10 minutes. AFM tips were washed with PBS three times and stored at 4° C. […] Loading rates were calculated by multiplying the pulling velocity (v) with the effective spring constant (keff). Spring constants were determined by the thermal-noise method. The force-distance curves were acquired using PicoView 1.12 (Agilent Technologies, Inc., California, USA) and analysed in Matlab 8.1 software (MathWorks, Massachusetts, USA). […] Amplitude-distance curves were collected on a glass coverslip to adjust the free oscillation amplitude, and to determine the optimal amplitude reduction value for driving the feedback loop during the imaging. Free amplitude of cantilever oscillation was 30 nm and the excitation frequency was set to 9 kHz.

## CCCCCCCCCCCCCCCC(=O)Oc1ccc(C[C@H](NC(=O)[C@H](CO)NC(=O)[C@H](Cc2c[nH]c3ccccc23)NC(=O)[C@H](Cc2c[nH]cn2)NC(=O)[C@@H](N)CCC(=O)O)C(=O)NCC(=O)N[C@@H](CC(C)C)C(=O)N[C@@H](CCCNC(=N)N)C(=O)N2CCC[C@H]2C(=O)NCC(N)=O)cc1 [TPGnRH, Tyrosine (O-Palmitoyl)-Glu-GnRH]
[1]; analyte in brackets of label
  k: 0.1781 min⁻¹
[1]; male, Wistar, rat
  remaining at 8 h, 4.03 mM: > 80%
[2]; 0 minutes
  % release from 3D printed bioink: 0%
[2]; 1 minutes
  % release from 3D printed bioink: 15.4 ± 9.6%
[2]; 5 minutes
  % release from 3D printed bioink: 15.4 ± 7.8%
[2]; 10 minutes
  % release from 3D printed bioink: 16.3 ± 11.5%
[2]; 15 minutes
  % release from 3D printed bioink: 15.4 ± 4.6%
[2]; 30 minutes
  % release from 3D printed bioink: 16.4 ± 4.9%
[2]; 45 minutes
  % release from 3D printed bioink: 14.7 ± 6.9%
[2]; 60 minutes
  % release from 3D printed bioink: 19.7 ± 8.5%
[2]; 90 minutes
  % release from 3D printed bioink: 20.6 ± 4.6%
[2]; 120 minutes
  % release from 3D printed bioink: 21.8 ± 9.4%
[2]; 240 minutes
  % release from 3D printed bioink: 20.6 ± 10.7%
[2]; 360 minutes
  % release from 3D printed bioink: 22.6 ± 7.4%
[2]; 1110 minutes
  % release from 3D printed bioink: 24.5 ± 7.9%
[2]; 1440 minutes
  % release from 3D printed bioink: 28.5 ± 9.8%
[2]; 2760 minutes
  % release from 3D printed bioink: 32.1 ± 9.7%
In vivo; brain
  tissue level at time at 5 min: 3080 ± 1010 ng/g
  tissue level at time at 1 h: 3470 ± 80 ng/g
In vivo; plasma
  level at 5 min: 545 ± 342 µg/mL
  level at 1 h: 45.6 ± 10.1 µg/mL
[3]; SEBTA-023
  Binding Force: 41.4 ± 3.85 pN
  Binding Probability: 17.04±3.1%
  koff: 2.49 ± 0.12 s⁻¹
[3]; U-87 MG
  Binding Force: 30.00 ± 5.57 pN
  Binding Probability: 13.2±0.9% and 13.2 ± 1.64%
  koff: 0.89 ± 0.1 s⁻¹
[3]; UP-007
  Binding Force: 50.80 ± 2.88 pN
  Binding Probability: 20.5±5.8%
  koff: 1.23 ± 0.13 s⁻¹
[3]; UP-029
  Binding Force: 46.4 ± 9.45 pN
  Binding Probability: 9.5±2.5% and 9.51 ± 2.53%
  koff: 2.03 ± 4.14 s⁻¹
